ChEMBL document CHEMBL1144685, “Naphthamides as novel and potent vascular endothelial growth factor receptor tyrosine kinase inhibitors: design, synthesis, and evaluation” (J Med Chem, 2008)
Active and inactive are the calls of the source. The calls are words filed in the database; no cut-off is given here.

Assays:
[1] = target: Vascular endothelial growth factor receptor 2 (Homo sapiens, UniProt P35968)
Description: Inhibition of KDR by HTRF assay

[2] = Intrinsic clearance in rat liver microsomes; type: ADME, Microsome
[3] = Intrinsic clearance in human liver microsomes; type: ADME, Microsome
[4] = Clearance in Sprague-Dawley rat at 1 mg/kg, iv; type: ADME, organism-based; design: dose 1 mg/kg, route intravenous; conditions: in vivo
[5] = Oral bioavailability in Sprague-Dawley rat at 2 mg/kg; type: ADME, organism-based; conditions: in vivo
[6] = Volume of distribution at steady state in Sprague-Dawley rat at 1 mg/kg, iv; type: ADME, organism-based; design: dose 1 mg/kg, route intravenous; conditions: in vivo, read-out: Vdss
[7] = Half life in Sprague-Dawley rat at 1 mg/kg, iv; type: ADME, organism-based; design: dose 1 mg/kg, route intravenous; conditions: in vivo
[8] = Mean retention time in Sprague-Dawley rat at 1 mg/kg, iv; type: ADME, organism-based; design: dose 1 mg/kg, route intravenous; conditions: in vivo
[9] = Cmax in Sprague-Dawley rat at 2 mg/kg, po; type: ADME, organism-based; design: dose 2 mg/kg, route oral; conditions: in vivo
[10] = AUC (0 to 24 hrs) in Sprague-Dawley rat at 2 mg/kg, po; type: ADME, organism-based; design: time < 24 hr, dose 2 mg/kg, route oral; conditions: plasma
Cytochrome P450 3A4 = Cytochrome P450 3A4 (Homo sapiens, UniProt P08684)
Cytochrome P450 2D6 = Cytochrome P450 2D6 (Homo sapiens, UniProt P10635)
HUVEC [11] = assay: cells; conditions: Homo sapiens
Description: Inhibition of VEGF-induced proliferation of HUVEC cells

HUVEC [12] = assay: cells; conditions: Homo sapiens; remark: listed apart in the source
Description: Inhibition of bFGF-induced proliferation of HUVEC cells

[13] = Clearance in Sprague-Dawley rat at 0.25 mg/kg, iv; type: ADME, organism-based; design: dose 0.25 mg/kg, route intravenous; conditions: in vivo
[14] = Volume of distribution at steady state in Sprague-Dawley rat at 0.25 mg/kg, iv; type: ADME, organism-based; design: dose 0.25 mg/kg, route intravenous; conditions: in vivo, read-out: Vdss
[15] = Half life in Sprague-Dawley rat at 0.25 mg/kg, iv; type: ADME, organism-based; design: dose 0.25 mg/kg, route intravenous; conditions: in vivo
[16] = Mean retention time in Sprague-Dawley rat at 0.25 mg/kg, iv; type: ADME, organism-based; design: dose 0.25 mg/kg, route intravenous; conditions: in vivo
[17] = Cmax in Sprague-Dawley rat at 2 mg/kg; type: ADME, organism-based; design: dose 2 mg/kg; conditions: in vivo
[18] = AUC (0 to 24 hrs) in Sprague-Dawley rat at 2 mg/kg; type: ADME, organism-based; design: time < 24 hr, dose 2 mg/kg; conditions: plasma
Mus musculus [19] = species: Mus musculus; assay: Inhibition of mouse KDR phosphorylation in BALB/c mouse lung assessed as phosphorylated Flk1 level by Delphia assay; type: functional, organism-based
Mus musculus [20] = assay: Inhibition of vascular permeability in HEK293 cells over expressing recombinant mouse VEGF implanted CD1 nu/nu mouse at 30 mg/kg, po by Matrigel plug assay; type: functional, organism-based; design: dose 30 mg/kg
Mus musculus [21] = assay: Inhibition of vascular permeability in HEK293 cells over expressing recombinant mouse VEGF implanted CD1 nu/nu mouse at 100 mg/kg, po by Matrigel plug assay; type: functional, organism-based; design: dose 100 mg/kg
HT-29 [22] = assay: Antitumor activity against human HT29 cell xenografted CD1 nu/nu mouse assessed as inhibition of tumor growth at 10 mg/kg, po after 7 days; type: functional, organism-based; design: dose 10 mg/kg
HT-29 [23] = assay: Antitumor activity against human HT29 cell xenografted CD1 nu/nu mouse assessed as inhibition of tumor growth at 30 mg/kg, po after 10 days; type: functional, organism-based; design: dose 30 mg/kg
[24] = Oral bioavailability in Sprague-Dawley rat at 10 mg/kg; type: ADME, organism-based; conditions: in vivo
[25] = Cmax in Sprague-Dawley rat at 10 mg/kg, po; type: ADME, organism-based; design: dose 10 mg/kg, route oral; conditions: in vivo
[26] = AUC (0 to 24 hrs) in Sprague-Dawley rat at 10 mg/kg, po; type: ADME, organism-based; design: time < 24 hr, dose 10 mg/kg, route oral; conditions: plasma

Sequence of Cytochrome P450 3A4 (P08684 whole entry): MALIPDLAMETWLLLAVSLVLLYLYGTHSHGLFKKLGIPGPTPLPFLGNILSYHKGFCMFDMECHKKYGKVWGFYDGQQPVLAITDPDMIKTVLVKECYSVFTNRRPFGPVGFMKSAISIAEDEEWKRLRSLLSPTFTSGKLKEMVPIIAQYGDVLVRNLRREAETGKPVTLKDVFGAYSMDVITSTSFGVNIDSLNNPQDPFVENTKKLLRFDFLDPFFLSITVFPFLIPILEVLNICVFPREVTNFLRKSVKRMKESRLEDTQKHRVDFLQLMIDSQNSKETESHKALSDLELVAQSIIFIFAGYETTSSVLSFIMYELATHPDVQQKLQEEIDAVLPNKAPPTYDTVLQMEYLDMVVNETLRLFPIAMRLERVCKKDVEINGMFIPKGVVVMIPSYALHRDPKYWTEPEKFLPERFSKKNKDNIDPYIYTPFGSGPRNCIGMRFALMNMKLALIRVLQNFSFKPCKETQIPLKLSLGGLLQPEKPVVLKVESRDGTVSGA
Sequence of Vascular endothelial growth factor receptor 2 (P35968 whole entry): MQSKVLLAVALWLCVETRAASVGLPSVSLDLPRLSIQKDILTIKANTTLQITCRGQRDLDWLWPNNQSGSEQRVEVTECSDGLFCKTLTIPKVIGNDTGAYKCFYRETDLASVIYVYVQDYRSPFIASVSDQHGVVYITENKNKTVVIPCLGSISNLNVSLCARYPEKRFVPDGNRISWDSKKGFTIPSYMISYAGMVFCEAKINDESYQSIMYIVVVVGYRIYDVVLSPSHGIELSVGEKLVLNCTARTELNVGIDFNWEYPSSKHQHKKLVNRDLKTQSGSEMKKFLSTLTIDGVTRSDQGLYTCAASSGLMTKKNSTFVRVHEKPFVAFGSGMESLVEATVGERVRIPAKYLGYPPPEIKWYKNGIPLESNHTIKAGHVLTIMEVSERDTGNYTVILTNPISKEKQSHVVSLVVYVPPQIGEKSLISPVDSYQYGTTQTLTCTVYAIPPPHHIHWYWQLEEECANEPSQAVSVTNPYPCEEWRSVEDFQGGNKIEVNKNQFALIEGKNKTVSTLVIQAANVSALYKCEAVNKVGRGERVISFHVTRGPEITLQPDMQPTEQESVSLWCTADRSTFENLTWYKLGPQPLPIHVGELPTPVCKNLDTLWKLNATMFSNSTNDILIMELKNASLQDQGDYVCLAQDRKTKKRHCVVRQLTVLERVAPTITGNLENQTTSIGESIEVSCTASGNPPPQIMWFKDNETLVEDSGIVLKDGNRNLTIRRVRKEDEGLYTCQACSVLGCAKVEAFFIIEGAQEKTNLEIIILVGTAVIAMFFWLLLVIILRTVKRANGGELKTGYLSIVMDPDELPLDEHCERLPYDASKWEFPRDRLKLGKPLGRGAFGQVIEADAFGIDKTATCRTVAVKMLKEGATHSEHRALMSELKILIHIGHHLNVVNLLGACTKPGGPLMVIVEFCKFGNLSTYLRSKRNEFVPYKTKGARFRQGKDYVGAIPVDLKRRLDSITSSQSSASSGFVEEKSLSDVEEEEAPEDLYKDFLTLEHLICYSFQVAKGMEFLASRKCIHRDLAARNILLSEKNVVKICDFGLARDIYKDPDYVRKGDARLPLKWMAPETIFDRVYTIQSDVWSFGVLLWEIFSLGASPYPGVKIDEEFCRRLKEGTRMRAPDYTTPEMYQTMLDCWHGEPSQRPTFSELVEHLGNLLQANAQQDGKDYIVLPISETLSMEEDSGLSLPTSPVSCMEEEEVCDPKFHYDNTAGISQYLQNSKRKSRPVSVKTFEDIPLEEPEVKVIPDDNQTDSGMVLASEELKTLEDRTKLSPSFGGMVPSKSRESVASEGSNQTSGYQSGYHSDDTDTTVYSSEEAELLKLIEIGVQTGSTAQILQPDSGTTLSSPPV
Sequence of Cytochrome P450 2D6 (P10635 whole entry): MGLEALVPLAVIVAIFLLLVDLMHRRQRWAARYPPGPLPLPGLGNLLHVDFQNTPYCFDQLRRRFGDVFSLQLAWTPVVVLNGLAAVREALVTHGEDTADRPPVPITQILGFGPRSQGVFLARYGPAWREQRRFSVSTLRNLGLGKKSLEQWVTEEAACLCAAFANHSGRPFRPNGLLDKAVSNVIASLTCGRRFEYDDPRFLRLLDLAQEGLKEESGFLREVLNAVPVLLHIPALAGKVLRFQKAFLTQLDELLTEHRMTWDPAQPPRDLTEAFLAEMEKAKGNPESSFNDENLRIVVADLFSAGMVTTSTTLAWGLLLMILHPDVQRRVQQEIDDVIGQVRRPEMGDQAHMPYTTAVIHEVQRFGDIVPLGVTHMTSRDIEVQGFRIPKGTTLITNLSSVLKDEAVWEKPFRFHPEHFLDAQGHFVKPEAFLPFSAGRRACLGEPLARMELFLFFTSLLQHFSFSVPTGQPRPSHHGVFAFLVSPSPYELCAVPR

SMILES | IC50 [1] [nM] | IC50 (HUVEC [11]) [nM] | IC50 (HUVEC [12]) [nM] | other results
O=C(Nc1ccc(Cl)cc1)c1cccc2cc(Oc3ccncn3)ccc12 | 310 | – | – | –
COc1cc2nccc(Oc3ccc4c(C(=O)Nc5ccccn5)cccc4c3)c2cc1OC | 0.8 | 2 | 286 | microsomal CLint [2]: 90 µL/min/mg; microsomal CLint [3]: 80 µL/min/mg; clearance [4]: 6.67 mL/min/kg; bioavailability [5]: 45%; Vd [6]: 3.1 L/kg; half-life [7]: 6.1 h; MRT [8]: 7.8 h; Cmax [9]: 200 ng/mL; AUC(0-t) at 24 h [10]: 1240 ng·h/mL; IC50 (Cytochrome P450 3A4): 13000 nM; IC50 (Cytochrome P450 2D6): > 50000 nM
COc1cc2nccc(Oc3ccc4c(C(=O)Nc5ccccc5)cccc4c3)c2cc1OC | 0.2 | 0.8 | 577 | –
COc1cc2nccc(Oc3ccc4c(C(=O)Nc5ccc(Cl)cc5)ccnc4c3)c2cc1OC | 22 | 10 | 88 | –
COc1cc2nccc(Oc3ccc4c(C(=O)Nc5ccc(Cl)cc5)cccc4c3F)c2cc1OC | 0.3 | 2 | 280 | microsomal CLint [2]: 30 µL/min/mg; microsomal CLint [3]: 30 µL/min/mg; clearance [13]: 1.67 mL/min/kg; bioavailability [5]: 50%; Vd [14]: 2.4 L/kg; half-life [15]: 17 h; MRT [16]: 22 h; Cmax [17]: 610 ng/mL; AUC(0-t) at 24 h [18]: 6010 ng·h/mL; IC50 (Cytochrome P450 3A4): > 50000 nM; IC50 (Cytochrome P450 2D6): > 50000 nM
CNC(=O)c1cc(Oc2ccc3c(C(=O)Nc4ccc(Cl)cc4)cccc3c2)ccn1 | 3 | 210 | > 1100 | –
COc1cc2nccc(Oc3ccc4c(C(=O)NC(C)C)cccc4c3)c2cc1OC | 5 | 4 | > 1140 | –
O=C(Nc1ccc(Cl)cc1)c1cccc2cc(Oc3ccnc4ccccc34)ccc12 | 4 | 34 | > 1100 | –
COc1cc2nccc(Oc3ccc4c(C(=O)Nc5ccc(Cl)cc5)cccc4c3)c2cc1OC | – | – | – | Activity (Mus musculus [19]): Active; Activity (Mus musculus [20]): Dose-dependent effect; Activity (Mus musculus [21]): Dose-dependent effect; Activity (HT-29 [22]): Active; Activity (HT-29 [23]): Active
COc1cc2nccc(Oc3ccc4c(C(=O)NC5CCCC5)cccc4c3)c2cc1OC | 9 | 7 | > 1140 | –
COc1cc2nccc(Oc3ccc4c(C(=O)Nc5ccccc5F)cccc4c3)c2cc1OC | 2 | 7 | > 1140 | –
COc1cc2nccc(Oc3ccc4c(C(=O)NC5CCC5)cccc4c3)c2cc1OC | 3 | 7 | > 1140 | –
COc1cc2nccc(Oc3ccc4c(C(=O)Nc5cc(C)on5)cccc4c3)c2cc1OC | 0.6 | 6 | 250 | –
COc1cc2nccc(Oc3cc4cccc(C(=O)Nc5ccc(Cl)cc5)c4cn3)c2cc1OC | 23 | 175 | > 1140 | –
COc1cc2nccc(Oc3ccc4c(C(=O)Nc5nccs5)cccc4c3)c2cc1OC | – | 2 | 605 | –
COc1cc2nccc(Oc3ccc4c(C(=O)Nc5cc(Cl)cc(Cl)c5)cccc4c3)c2cc1OC | 0.3 | 28 | 742 | –
COc1cc2nccc(Oc3ccc4c(C(=O)Nc5cccnc5)cccc4c3)c2cc1OC | 0.8 | 2 | 1100 | microsomal CLint [2]: 90 µL/min/mg; microsomal CLint [3]: 90 µL/min/mg; clearance [4]: 15 mL/min/kg; bioavailability [24]: 100%; Vd [6]: 1.3 L/kg; half-life [7]: 1.1 h; MRT [8]: 1.4 h; Cmax [25]: 5710 ng/mL; AUC(0-t) at 24 h [26]: 27100 ng·h/mL; IC50 (Cytochrome P450 3A4): 2000 nM; IC50 (Cytochrome P450 2D6): 17000 nM
COc1cc2ncc(F)c(Oc3ccc4c(C(=O)Nc5ccc(Cl)cc5)cccc4c3)c2cc1OC | 20 | 69 | > 1100 | –
COc1cc2nccc(Oc3ccc4c(C(=O)Nc5ccc(Cl)cc5)cccc4c3)c2cc1C(N)=O | 0.2 | 3 | 380 | –
COc1cc2nccc(Oc3ccc4c(C(=O)Nc5ccncc5)cccc4c3)c2cc1OC | 2 | 2 | > 1140 | microsomal CLint [2]: 80 µL/min/mg; microsomal CLint [3]: 30 µL/min/mg; clearance [4]: 10 mL/min/kg; bioavailability [24]: 62%; Vd [6]: 1.4 L/kg; half-life [7]: 1.8 h; MRT [8]: 2.5 h; Cmax [25]: 1690 ng/mL; AUC(0-t) at 24 h [26]: 11000 ng·h/mL; IC50 (Cytochrome P450 3A4): 100 nM; IC50 (Cytochrome P450 2D6): 700 nM
COc1cc2nccc(N(C)c3ccc4c(C(=O)Nc5ccc(Cl)cc5)cccc4c3)c2cc1OC | > 1400 | – | – | –
COc1cc2nccc(Oc3ccc4c(C(=O)Nc5ccc(C(F)(F)F)cc5)cccc4c3)c2cc1OC | 0.5 | 16 | 228 | –
